Measurements published in patent US20210369664A1, “PROPHYLACTIC OR THERAPEUTIC AGENT FOR PULMONARY HYPERTENSION WHICH COMPRISES PPAR? AGONIST” (TOHOKU UNIVERSITY, priority 2016, published 2021).

Columns and labels:
[1] = test system: hypoxia-induced pulmonary hypertension mice; conditions: WY-14643 3 mg/kg/day by mixed feed
Protocol: Hypoxia-induced pulmonary hypertension mice serving as a model generally used in an animal experiment for pulmonary hypertension were administered a PPARα agonist (WY-14643, Sigma) at 3 mg/kg/day by mixed feed. Specifically, first, 8-week-old male wild-type mice (Balb/c mice, n=12 per group) were housed in a transparent acrylic box with an oxygen concentration controlled to 10% using a hypoxia generator (Teijin Limited, Japan) under a 12 h light and dark cycle. The mice were stimulated by hypoxia for 3 weeks, and a diet in this period was mixed with WY-14643 (the following solution was used as WY-14643: 1 mg of WY-14643 was dissolved in 0.1 ml of DMSO, and the solution of WY-14643 in DMSO was mixed with ultrapure water (mQ or ultrapure water) to prepare a 100 ml solution). The administration by mixed feed was performed at 3 mg/kg/day according to the previous report (Andrew D, et al. Hepatology. 2012; 56: 281-290). […] The following tests were also performed as controls: a test in which the mice were stimulated by hypoxia in the same manner as described above except that the mice were administered a 1:1,000 (V/V) mixed solution of DMSO and ultrapure water by mixed feed in place of WY-14643 as a diet; and a test in which the mice were administered the mixed solution of DMSO and ultrapure water by mixed feed in place of WY-14643 as a diet and were not stimulated by hypoxia.
(§1) After the hypoxic stimulation for 3 weeks, a 1.2-Fr catheter (SciSense Inc., Ontario, Canada) was inserted in the jugular vein of the mice under isoflurane anesthesia and advanced into the right ventricle to measure a right ventricular systolic pressure. In addition, after the measurement of the right ventricular systolic pressure, the heart and the lungs were dissected. For the heart, the right ventricle and the left ventricle were separated and their weight ratio was measured to assess right ventricular hypertrophy.
In addition, in tissue slides of the formalin-fixed lungs of each group, the number of pulmonary vessels including thrombi was counted for a field of about 100 mm^2, and the number of the pulmonary vessels including thrombi per 100 mm^2 was calculated. […] The resultant plasma sample was measured for its D-dimer concentration in plasma (unit: ng/ml) through the use of an ELISA kit (CEA506Mu manufactured by Life Science Inc.) according to the instruction of the kit. In addition, the plasma sample was measured for its thrombin-antithrombin complex (TAT) concentration in plasma (unit: pg/ml) through the use of an ELISA kit (SEA831Mu manufactured by Life Science Inc.) according to the instruction of the kit.
The dissected lungs were fixed with 10% formalin for 24 hours, and then 3 μm sections of the specimens were used to prepare slides. The slides were subjected to Elastica-Masson staining for staining elastic fiber in order to assess vessel wall thickening (remodeling). 60 to 80 distal pulmonary arteries having diameters of from 20 μm to 70 μm were observed per mouse, and their wall thickening was divided into 3 stages.

[2] = Average body weight of the administration groups in the hypoxia test; format: in vivo
Protocol: as §1, with “hypertrophy. The average body weights of the Control group (PPARα agonist: −, Hypoxia [3 wks]: −), the Vehicle group (PPARα agonist: −, Hypoxia [3 wks]: +), and the WY-14643 administration group (PPARα agonist: +, Hypoxia [3 wks]: +) before the test were 29.2±1.2 g, 28.9±1.0 g, and 29.6±1.4 g, respectively. In addition, the average body weights of the Control group, the Vehicle group, and the WY-14643 administration group after the test were 32.1±2.1 g, 23.5±1.8 g, and 25.7±2.0 g, respectively.” for “hypertrophy.”

## Cc1cccc(Nc2cc(Cl)nc(SCC(=O)O)n2)c1C [WY-14643, [[4-chloro-6-[(2,3-dimethylphenyl)amino]pyrimidin-2-yl]thio]acetic acid]
[1]; chronic hypoxic stimulation 3 weeks, lung tissue slides (FIG. 2)
  thrombus formation (number of pulmonary vessels including thrombi per 100 mm^2): suppressed the increase in thrombus formation
[1]; hypoxia 3 weeks
  pulmonary hypertension (overall result): ameliorated pulmonary hypertension
[1]; hypoxia 3 weeks (FIG. 3)
  remodeling of distal pulmonary vessels (Elastica-Masson staining): significant reduction
[1]; hypoxia 3 weeks, Balb/c mice (FIG. 1)
  right ventricular hypertrophy (right ventricle/(left ventricle plus septum) weight ratio): Significant reductions
[1]; hypoxia 3 weeks, plasma, ELISA (FIG. 2)
  D-dimer/TAT ratio (indicator of impaired fibrinolytic capacity): its reduction was found
[1]; hypoxia (10% oxygen) 3 weeks, Balb/c mice, vs vehicle (FIG. 1)
  right ventricular systolic pressure: Significant reductions
[2]; WY-14643 administration group, 3 mg/kg/day, after 3 weeks hypoxia, Example 1
  average body weight after the test: 25.7 ± 2.0 g

## CC(C)OC(=O)C(C)(C)Oc1ccc(C(=O)c2ccc(Cl)cc2)cc1 [fenofibrate, isopropyl 2-[4-(4-chlorobenzoyl)phenoxy]-2-methylpropionate]
[2]; fenofibrate administration group, 50 mg/kg/day, Example 3
  average body weight after the test: 334.30 ± 20.67 g
